Entries after “also recorded” stand apart in the source; their conditions may differ.
Key:
Assay type in all cases: cell-based, human
[1] = tested on: HUVECs; test: Immunostaining of TNF-α stimulated endothelium in microchannel
Description: The microfluidic devices are left overnight at 37° C. in a 5% carbon dioxide (“CO2”) incubator, after which they are rinsed with Endothelial Growth Medium-2 (“EGM-2”) from Lonza. Human Umbilical Vein Endothelial Cells (“HUVEC”) from a mixed donor, by Lonza, are kept in culture and suspended at 12.5 million cells/milliliter (“mL”) in EGM-2, after confluence. The suspension is introduced into the collagen-coated microchannels, after which the microfluidic devices are incubated upside down for 20 minutes. A fresh HUVEC suspension is then introduced in the microchannels, after which the microfluidic devices are incubated for eight hours to promote cell attachment across the channel. The microchannels are, then, rinsed with EGM-2, sometimes containing a freshly prepared solution of tumor necrosis factor (“TNF-α”), which is a recombinant from E. coli from Sigma. Antibodies against intercellular adhesion molecule-1 (“ICAM-1”) and vascular adhesion molecule-1 (“VCAM-1”), tissue factor (from Santa Cruz), VWF (from Abcam) and VE-Cadherin (from Santa Cruz) were perfused into the microfluidic devices after fixing the endothelium with 2% paraformaldehyde for ten minutes, incubating the endothelium for three hours, and counterstaining with a secondary fluorescent IgG antibody for three hours.
(§1) Multiple endothelial adhesion molecules are involved in the recruitment of blood cells and platelets in thrombosis in vivo. In previous studies, treatment of a living endothelium cultured in microfluidic channels with TNF-α results in an increase in expression of surface adhesion molecules, such as ICAM-1 and VCAM-1 within four hours after addition. To explore whether a fixed endothelium retains expression of these and other surface molecules that could potentially exacerbate thrombosis, the endothelium is first activated in the device by adding increasing doses of TNF-α, e.g., 0, 5, and 100 nanograms/millliter (“ng/ml”), for approximately 18 hours. The endothelium cells are fixed with 4% paraformaldehyde in phosphate-buffered saline (“PBS”) for 15 minutes at room temperature, are rinsed three times with PBS, and, then, stored in PBS at 4° C. in a humid environment.
Human umbilical vein endothelial cells (HUVECs, Lonza) were cultured in Endothelial Growth Medium-2 (EGM-2, Lonza) and used between passages 3 and 7. Before seeding HUVECs in the devices, the microchannels were pre-treated with 1% (3-aminopropyl)-trimethoxysilane in phosphate-buffered saline (PBS) for 10 min, flushed sequentially with 70% ethanol in water and 100% ethanol, and then incubated at 80° C. for two hours before rat tail collagen I (100 μg/ml in PBS; BD Biosciences) was introduced in the channels. Some of the devices were used with the collagen coating alone (without cells) after incubation overnight at 37° C. and flushing of the channels with EGM-2. In other studies for comparison, HUVECs (12.5×10^6 cells/ml) were introduced into the collagen-coated channels and incubated for 20 min at 37° C. to promote cell attachment before a second similar HUVEC suspension was then introduced and the devices were incubated upside down for an additional 20 min to seed the cells on the ceiling and walls of the microfluidic channels. Channels were then flushed with EGM-2 and the devices were incubated at 37° C. under 5% CO2 for 24 hours to promote HUVEC monolayer formation on all exposed surfaces of the microchannel. In some cases, the medium was supplemented with one or more inflammatory cytokines (e.g., 5 or 100 ng/ml TNF-α (Sigma)) to activate the HUVEC monolayer. Fluorescence microscopy was performed on endothelium that was fixed with 4% formaldehyde (Sigma) and stained with antibodies against TF (Santa Cruz), vWF (Abeam), VE-Cadherin (Santa Cruz), followed by counterstaining with phalloidin and DAPI (Invitrogen).

[2] = tested on: HUVECs and platelets; test: Platelet adhesion and dynamics on TNF-α stimulated endothelium (living or fixed), whole blood perfusion; conditions: for platelet aggregation pattern / Aggregation Index (AI) / translocation and embolization of thrombi / Embolization Index (EI): HUVEC, TNF-α 0, 5, 100 ng/ml
Description: 500 microliters (“μL”) of whole blood are pipetted into a fluid reservoir fitted to one end of a microchannel. Platelets are labeled with human CD41-PE antibody (e.g., 10 μL/mL from Invitrogen) that is directly added to the blood samples and incubated at room temperature for 10 minutes. Fluorescently labeled fibrinogen (e.g., 10 μg/mL from Life Sciences) is added, if required. Blood is pulled through the device (e.g., 30 μL/min) via tubing at an outlet using a syringe pump (e.g., PHD Ultra™ CP, Harvard Apparatus), resulting in an arterial shear rate of 750 s^−1. After two minutes, blood is supplemented with 100 millimolars (“mM”) calcium (“CaCl2”) and 75 mM magnesium (“MgCl2”) to support coagulation-activated blood clotting (e.g., 100 μL/mL).
Platelets are visualized using time-lapse fluorescence imaging (e.g., 20×, NA 0.4). A time series of a 10-frame panorama (e.g., 6 mm long×0.665 mm wide region of a microchannel), at a lapse of every 30 seconds is recorded. The resulting image stack is maximum intensity projected along time, thresholded, segmented, and cropped to a central 200 microns (“μm”) of the channel width for analysis. Finally, platelet coverage is computed from the binary image as the ratio of bright pixels to the total number of pixels in the image.
as §1
To explore whether the fixed endothelium in the microfluidic devices retains the ability to promote hemostasis, recalcified citrated whole blood (coagulation activated) is immediately perfused through a microfluidic channel lined by the fixed endothelium and preserved for 24-36 hours. Platelet adhesion is analyzed for 15 minutes of flow.
Specifically, the analysis includes a method to quantitate platelet function in flow chambers and microfluidic devices that has been primarily limited to analyzing platelet adhesion on bare collagen surfaces. To analyze platelet-endothelial dynamics that will act as a robust readout of physiologically-relevant clotting, an automated imaging program creates an image time-series, K(x, y, t), containing a 10-frame panorama in space. Images are acquired at a frame rate of 2 panoramic images per minute, for a total time of 15 minutes. A non-dimensional stochastic index is derived to quantitate platelet endothelial dynamics (“P-E”), which is the interpercentile range of a coefficient of variance of the image time-series: P-E=range(CV(K(x,y,t) (1) A feature of this analytical readout is that instead of an “ensemble averaging,” the method incorporates the cell-surface interactions at the pixel level and quantitates statistical “dispersion” of interactions.
When the device is perfused with whole blood, thrombi that are rich in platelets and fibrin form on the surface (FIG. 65C). The spatiotemporal dynamics of fluorescent platelet activity during formation of these thrombi on the endothelial surface was analyzed by time-lapse imaging. As flow was stable for at least 15 min, all experiments were carried out within the first 15 minutes. In some embodiments, blood might begin to clot in the tubing connected to the chip at later times (leading to decreased perfusion rates). […]

[3] = tested on: HUVECs and platelets; test: as above; conditions: TNF-α 5 ng/ml before fixation; kept 1 day or 5 days; versus no TNF-α
[4] = TNF-α before fixation, versus untreated

tumor necrosis factor-α [TNF-α]
ICAM-1 expression on living endothelium ([1]; HUVECs stimulated with various doses of TNF-α): increased with increase in TNF concentration; also recorded: dose-dependent activation of ICAM-1; also recorded: dose-dependent surface expression of adhesion molecule ICAM-1; also recorded: increased in a dose-dependent manner | tissue factor (TF) expression on living endothelium ([1]; HUVECs, TNF-α 5 or 100 ng/ml): increase in the endothelial expression | von Willebrand Factor (vWF) expression on living endothelium ([1]; HUVECs, TNF-α 5 or 100 ng/ml): increase in the endothelial expression | VCAM-1 immunofluorescence on fixed endothelium ([1]; TNF-α 0, 5, 100 ng/ml for about 18 hours before fixation): dose-dependent increase | ICAM-1 immunofluorescence on fixed endothelium ([1]; TNF-α 0, 5, 100 ng/ml for about 18 hours before fixation, normalized to untreated): dose-dependent increase | VWF immunofluorescence on fixed endothelium [1, 4]: dose-dependent increase; also recorded: higher levels | tissue factor immunofluorescence on fixed endothelium [1, 4]: dose-dependent increase; also recorded: higher levels | platelet aggregation pattern / Aggregation Index (AI) [2]: heterogeneous and fluctuated in a dose-dependent manner; also recorded: varied depending on the dose of TNF-α | translocation and embolization of thrombi / Embolization Index (EI) [2]: great variation in the fluorescent signal over time and space; also recorded: increased with increasing doses | platelet aggregation pattern / Aggregation Index (AI) ([2]; listed as TNFα): rise of AI with increasing TNFα dose | translocation and embolization of thrombi / Embolization Index (EI) ([2]; listed as TNFα): increased in a TNFα dose-dependent manner | area-averaged platelet adhesion rate on living HUVECs ([2]; TNF-α stimulated HUVECs (TNF+; TNF++) versus unstimulated): increase in platelet adhesion | platelet dynamics (TPD, SPD) on fixed HUVECs ([2]; TNF-α treated and fixed, versus fixed collagen or untreated fixed endothelium): elevated | platelet coverage on fixed endothelium ([2]; endothelium treated with increasing doses of TNF-α prior to fixation): increases in a TNF-α dose-dependent manner; also recorded: dose-dependent increase in platelet surface adhesion; also recorded: dose-dependent increase in surface coverage of platelet-rich thrombi | platelet-endothelial dynamics (P-E; spatial and temporal dispersion) ([2]; living endothelium stimulated with TNF-α): increase in a TNF-α dose dependent manner; also recorded: significant fluctuations; also recorded: TNF-α dose-dependent increase in both the spatial and temporal dispersion | platelet coverage / adhesion on living endothelium ([2]; living endothelium stimulated with TNF-α before blood flow): increases in a TNF-α dose-dependent manner; also recorded: platelet adhesion again occurs; also recorded: platelet adhesion and aggregation again resulted | platelet adhesion rate on fixed HUVECs [3]: significantly higher
